Like-named read-outs stand apart in the source and are kept apart here.

The subject of data set [1] is hormone refractory prostate cancer. To be noted: in vivo; cited from earlier work.
For data set [2] the following is noted: human, in vivo; cited from earlier work.
A further data set concerns advanced kidney cancer. The settings on record: after a 12-week treatment period, compared to the placebo group; cited from earlier work.
Data set [3] concerns refractory ovarian cancer. The settings on record: in vivo; cited from earlier work.
The subject of data set [4] is refractory acute myeloid leukemia. To be noted: twice weekly administration; cited from earlier work.
Data set [5] has as its system prostate cancer, renal cell carcinoma, or multiple myeloma. The settings on record: in vivo; cited from earlier work.
For another data set, the system named is Akt. To be noted: gefitinib concentration of 10 μM, data from FIG. 3 of Moasser et al., cited from earlier work.
For data set [6], the system named is non-small cell lung cancer. To be noted: patients with refractory non-small cell lung cancer in whom standard therapy failed; cited from earlier work.
In another data set the test system is BT474. The data set can be described thus: gefitinib sensitivity (IC50) of cancer cell line.
For a further data set, the system named is MDA-MB-361. Nature of the data set: gefitinib sensitivity (IC50) of cancer cell line.
The test system of another data set is SkBr3. The data set can be described thus: gefitinib sensitivity (IC50) of cancer cell line.
A further data set deals with MDA-MB-453. Nature of the data set: gefitinib sensitivity (IC50) of cancer cell line.
The test system of a further data set is A431. Nature of the data set: gefitinib sensitivity (IC50) of cancer cell line.
Another data set deals with SkOv3. The data set can be described thus: gefitinib sensitivity (IC50) of cancer cell line.
The next data set relates to DU145. Nature of the data set: gefitinib sensitivity (IC50) of cancer cell line.
The subject of data set [7] is EGF-dependent cell proliferation. To be noted: cited from earlier work.
Data set [8] relates to advanced stage III or IV non-small cell lung cancer. To be noted: progressive disease after standard chemotherapies; cited from earlier work.
Another data set has as its system renal cell carcinoma. To be noted: human, in vivo; cited from earlier work.

For `Cc1oncc1C(=O)Nc1ccc(C(F)(F)F)cc1` [leflunomide], in data set [1], the “patients with a decrease in prostate specific antigen of greater than 50%” value is listed as “about 7%” and the “patients with partial responses” value is on record as “less than 5%”. For the same compound, the “most common / toxic side-effects” value in data set [2] was “asthenia, nausea, anorexia, and anemia”.

As to `CNC(=O)c1cc(Oc2ccc(NC(=O)Nc3ccc(Cl)c(C(F)(F)F)c3)cc2)ccn1` [sorafenib], in the data set with advanced kidney cancer, the “patients whose disease did not progress” value was “statistically higher percentage of patients whose disease did not progress”. In data set [2], the “most common / toxic side-effects” value is “skin reactions such as hand-foot syndrome and rash, diarrhea, fatigue, weight loss, and hypertension”.

As for `C=CC(=O)Nc1cc2c(Nc3ccc(F)c(Cl)c3)ncnc2cc1OCCCN1CCOCC1` [canertinib], the antitumor activity result in data set [3] is reported as “minimal antitumor activity”.

Consider `Cc1cc(C)c(/C=C2\C(=O)Nc3ccccc32)[nH]1` [semaxinib], for which, in data set [4], the complete responses is listed as 1 and the partial responses is given as 7. Besides, the objective response rates result in [5] is given as “minimal objective response rates”. In [2], the “most common / toxic side-effects” value is “headache, nausea, vomiting, asthenia, pain at the infusion site, phlebitis, change in voice, and fever”.

For `CS(=O)(=O)CCNCc1ccc(-c2ccc3ncnc(Nc4ccc(OCc5cccc(F)c5)c(Cl)c4)c3c2)o1` [lapatinib], the “most common / toxic side-effects” value in data set [2] is “diarrhea and skin rash”.

`COc1cc2ncnc(Nc3ccc(F)c(Cl)c3)c2cc1OCCCN1CCOCC1` [gefitinib]: the “Akt (level of Akt activity)” value with Akt (A431) is on record as 2; in the data set with Akt (A549), 85; in the data set with Akt (BT474), 10; with Akt (Colo205), 105; in the data set on Akt (DU145), 35; in the data set with Akt (DU4475), 105. Also, the “Akt (level of Akt activity)” value is reported as 70 with Akt (MCF-7); 20 in the data set on Akt (MDA-MB-361); 40 in the data set with Akt (MDA-MB-453); 90 in the data set on Akt (MDA-MB-468); 70 in the data set with Akt (MDA-MIB-231); 55 in the data set on Akt (PC3). The “Akt (level of Akt activity)” value is on record as 2 in the data set with Akt (SkBr3); 40 with Akt (SkOv3); 90 with Akt (T24); 85 in the data set with Akt (T47D); 85 in the data set with Akt (ZR75). Further, the response rate result in data set [6] is listed as “about 10%”. Further, the “CATAG (gefitinib-sensitive)” value in the data set on BT474, in the data set on MDA-MB-361, in the data set on SkBr3, in the data set on MDA-MB-453, in the data set with A431 and in the data set with SkOv3 was 1 (An IC50 <9 μM was considered gefitinib-sensitive (“CATAG” = 1)) throughout. In addition, in the data set with DU145, the “CATAG (gefitinib-sensitive)” value is 1 (An IC50 <9 μM was considered gefitinib-sensitive (“CATAG” = 1)).

Take `C#Cc1cccc(Nc2ncnc3cc(OCCOC)c(OCCOC)cc23)c1` [erlotinib]: the “inhibits EGF-dependent cell proliferation” value in data set [7] was “nanomolar concentrations”. Besides, in data set [8], the median survival is on record as 8.4 months and the response rate was 12%. For the same compound, the “most common / toxic side-effects” value in data set [2] is “an acneiform skin rash and diarrhea”.

With `Clc1ccc(Nc2nnc(Cc3ccncc3)c3ccccc23)cc1` [vatalanib], in the data set with renal cell carcinoma, the “patients with minor responses” value is given as 15% and the “patients with partial responses” value was 5%.

The values above are taken from patent publication US7908091B2, “Methods of predicting and monitoring tyrosine kinase inhibitor therapy” (Prometheus Laboratories Inc., priority 2006, dated 2011).
